Measurements reported in patent publication US20070149481A1, “N,n-bridged, nitrogen-substituted carbacyclic indolocarbazoles as protein kinase inhibitors” (priority 2002, published 2007).

What was measured:
Assay type in all cases: biochemical
Conditions in all cases: 10 μM compound
GSK3β = biological target: T1, GSK3β (Homo sapiens, UniProt P49841); experiment: Glycogen Synthase Kinase 3β inhibition assay (GSK3β)
T1 construct: purchased Upstate Discovery
Method: The GSK3β kinase activity assay utilizes a radioactivity-based format in a 96-well PCR plate with radioactive readout. The GSK3 β activity was assayed in a 25 μL assay mixture containing 8 mM HEPES (pH 7.0), 250 μM ATP, 0.2 mM EDTA (pH 8), 2% DMSO, 250 ng/mL Myelin Basic Protein (MBP, Sigma M-1891), and 12 ng/mL GSK3β (Upstate Discovery, specific activity=607 nmol/min*GS2 peptide, concentration of 6.05 mg/mL). Compounds were screened for inhibition of the GSK3β kinase activity at a concentration of 10 μM. The kinase reaction was allowed to proceed at 37° C. for 30 minutes, then the reaction was stopped by addition of 5 μL of 0.5M EDTA (pH 8).

PKC (rat brain) = experiment: Protein Kinase C inhibition assay (PKC)
Method: (§1) The ERK2 kinase activity assay utilizes a radioactivity-based format in a 96-well PCR plate with radioactive readout. The ERK2 activity was assayed in a 25 μL assay mixture containing 25 mM HEPES (pH 7.0), 250 μM ATP, 1 mM MgCl2, 1 mM DTT, 2% DMSO, 150 ng/mL Myelin Basic Protein (MBP, Sigma M-1891), and 13.6 ng/mL His tagged ERK2 (specific activity=38.1 nmol/min*mg). Compounds were screened for inhibition of the ERK2 kinase activity at a concentration of 10 μM. The kinase reaction was allowed to proceed at 37° C. for 30 minutes, then reaction was stopped by the addition of 5 μl of 0.5M EDTA (pH 8). 15 μL of each solution were then spotted onto the corresponding square of a filtermat (8×12 glassfibre mat 90×120 mm, PE-Wallac 1450-421). The filtermat was allowed to dry and washed once with 10% TCA, 2% PPA, 500 mM NaCl each for 30 minutes at rt. Two further washings in 10% TCA and 2% PPA for 30 minutes were performed, then a final 30 minute wash in 99% EtOH at rt was done and the filtermat was air dried. The dry filtermat was then placed in a sample bag with a Meltilex sheet (Melt-on scintillator sheets 73×109 mm, PE-Wallac 1450-441 for filtermat A) over the filtermat. The bag was trimmed to fit into the microplate heatsealer (PE-Wallac 1495-021). The heatsealer is used to melt the Meltilex on the filtermat. The bag containing the filtermat and the melted Meltilex was then placed into a filter cassette and counted using the Microbeta Jet Scintillation and Luminescence Counter PE-Wallac 1450.
The PKC kinase activity assay utilizes a radioactivity-based format in a 96-well PCR plate with radioactive readout. The PKC activity was assayed in a 25 μL assay mixture containing 25 mM HEPES (pH 7.0), 250 μM ATP, 10 mM MgCl2, 1 mM DTT, 1 mM EDTA (pH 8), 2 mM CaCl2, 2% DMSO, 250 ng/mL Histone H1 (Roche 1 004 875), and 165 ng/mL PKC (rat brain, Calbiochem 539494, specific activity=1600 nmol/min*mg). Compounds were screened for inhibition of the PKC kinase activity at a concentration of 10 μM. The kinase reaction was allowed to proceed at 37° C. for 30 minutes, then the reaction was stopped by addition of 5 μL of 0.5M EDTA (pH 8). The remainder of the protocol is identical to the one reported for ERK2.

His tagged ERK2 = His tagged ERK2 (Homo sapiens, UniProt P28482); experiment: Extracellular signal Regulated Kinase 2 inhibition assay (ERK2), radioactive filtermat format
Method: as §1

[1] = biological target: T2, PKA (catalytic subunit, bovine heart) (Bos taurus, UniProt P00517); experiment: Protein Kinase A inhibition assay (PKA)
T2 construct: PKA (catalytic subunit, bovine heart, Calbiochem 539486); purchased Calbiochem 539486; host or cells: bovine heart (tissue-derived)
Method: as §1
The PKA kinase activity assay utilizes a radioactivity-based format in a 96-well PCR plate with radioactive readout. The PKA activity was assayed in a 25 μL assay mixture containing 25 mM HEPES (pH 7.0), 250 μM ATP, 10 mM MgCl2, 1 mM DTT, 1 mM EDTA (pH 8). 2% DMSO. 250 ng/mL Histone H2B (Roche 223 514), and 2 ng/mL PKA (catalytic subunit, bovine heart, Calbiochem 539486, specific activity=1170 pmol/min*μg). Compounds were screened for inhibition of the PKA kinase activity at a concentration of 10 μM. The kinase reaction was allowed to proceed at 37° C. for 30 minutes, then the reaction was stopped by addition of 5 μL of 0.5M EDTA (pH 8). The remainder of the protocol is identical to the one reported for ERK2.

His tagged ERK2, sequence (P28482 whole entry): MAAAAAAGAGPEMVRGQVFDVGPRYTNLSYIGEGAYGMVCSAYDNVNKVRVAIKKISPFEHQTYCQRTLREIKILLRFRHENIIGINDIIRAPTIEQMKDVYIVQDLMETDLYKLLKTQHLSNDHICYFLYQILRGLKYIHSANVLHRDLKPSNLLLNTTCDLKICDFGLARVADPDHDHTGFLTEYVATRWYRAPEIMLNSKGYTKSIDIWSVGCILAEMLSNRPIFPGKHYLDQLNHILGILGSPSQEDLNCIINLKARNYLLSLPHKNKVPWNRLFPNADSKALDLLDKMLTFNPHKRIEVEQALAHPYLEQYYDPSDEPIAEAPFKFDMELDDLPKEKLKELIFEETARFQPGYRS
T1 sequence (P49841 whole entry, species assumed): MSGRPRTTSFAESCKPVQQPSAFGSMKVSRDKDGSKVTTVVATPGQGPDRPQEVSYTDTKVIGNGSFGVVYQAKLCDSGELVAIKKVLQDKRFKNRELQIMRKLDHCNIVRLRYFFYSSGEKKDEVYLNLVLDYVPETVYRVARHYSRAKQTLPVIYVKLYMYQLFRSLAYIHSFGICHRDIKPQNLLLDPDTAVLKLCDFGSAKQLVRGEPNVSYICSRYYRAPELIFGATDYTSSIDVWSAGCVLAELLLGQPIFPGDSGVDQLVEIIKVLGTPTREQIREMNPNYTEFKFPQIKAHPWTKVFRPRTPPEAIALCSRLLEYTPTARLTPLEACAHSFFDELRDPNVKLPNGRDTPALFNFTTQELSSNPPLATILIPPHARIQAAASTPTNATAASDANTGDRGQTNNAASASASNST

| inhibition at 10 µM (GSK3β) [%] | % Inhibition PKC (PKC (rat brain)) [%] | inhibition at 10 µM (His tagged ERK2) [%] | inhibition at 10 µM [1] [%] | % Inhibition GSK3β (GSK3β) | % Inhibition ERK2 (His tagged ERK2) [%] | % Inhibition PKA [1] | Structure (SMILES) |
| --- | --- | --- | --- | --- | --- | --- | --- |
| < 10 | 49.73 | 30.9 | 17.6 |  |  |  | COc1ccc(CN2C(=O)c3c(c4c5ccccc5n5c4c4c3c3ccccc3n4C3CC5[C@@H](N)C3)C2=O)cc1 (mixture of isomers) [Compound 1] |
| 78.2 | 90.78 | 65.3 | 68.4 |  |  |  | CN[C@H]1CC2CC1n1c3ccccc3c3c4c(c5c6ccccc6n2c5c31)C(=O)NC4=O (mixture of isomers) [Compound 2] |
| 19.3 | 75.80 | 39.9 | 26.1 |  |  |  | O=C1NC(=O)c2c1c1c3ccccc3n3c1c1c2c2ccccc2n1C1CC3C[C@@H]1N1CCOCC1 (mixture of isomers) [Compound 3] |
| 98.5 | 78.10 | 94.1 | 89.6 |  |  |  | N#C[C@]1(N)CC2CC1n1c3ccccc3c3c4c(c5c6ccccc6n2c5c31)C(=O)NC4=O (mixture of isomers) [Compound 4] |
| 99.2 | 90.75 | 93.5 | 95.3 |  |  |  | CNC(=O)[C@]1(N)CC2CC1n1c3ccccc3c3c4c(c5c6ccccc6n2c5c31)C(=O)NC4=O (mixture of isomers) [Compound 10] |
| 99.2 | 95.94 | 93.6 | 90.5 |  |  |  | N[C@@]1(C(=O)NCCO)CC2CC1n1c3ccccc3c3c4c(c5c6ccccc6n2c5c31)C(=O)NC4=O (mixture of isomers) [Compound 11] |
| 100 | 96.63 | 98.1 | 99.9 |  |  |  | NC(=O)[C@]1(N)C[C@@H]2CC1n1c3ccc(O)cc3c3c4c(c5c6cc(O)ccc6n2c5c31)C(=O)NC4=O (mixture of isomers) [Compound 12] |
| < 10 | 13.67 | 24.7 | 13.2 |  |  |  | COc1ccc(CN2C(=O)c3c(c4c5ccccc5n5c4c4c3c3ccccc3n4C3CC5[C@]4(C3)NC(=O)NC4=O)C2=O)cc1 (mixture of isomers) [Compound 13] |
| < 10 | 34.01 | 46.6 | 16.6 |  |  |  | COc1ccc(CN2C(=O)c3c(c4c5ccccc5n5c4c4c3c3ccccc3n4C3CC5[C@]4(C3)NC(=O)N(C)C4=O)C2=O)cc1 (mixture of isomers) [Compound 14] |
| 96.9 | 88.68 | 94.6 | 79.8 |  |  |  | [N-]=[N+]=NC1C2CC([C@H]1O)n1c3ccccc3c3c4c(c5c6ccccc6n2c5c31)C(=O)NC4=O (mixture of isomers) [Compound 15] |
| 98.5 | 93.34 | 98.2 | 84.8 |  |  |  | N[C@@H]1C2CC([C@H]1O)n1c3ccccc3c3c4c(c5c6ccccc6n2c5c31)C(=O)NC4=O (mixture of isomers) [Compound 16] |
| 12.1 | 96.75 | < 10 | < 10 |  |  |  | COC(=O)c1cn([C@@H]2C3CC([C@H]2O)n2c4ccccc4c4c5c(c6c7ccccc7n3c6c42)C(=O)NC5=O)nn1 (mixture of isomers) [Compound 17] |
| 75.9 | 21.55 | < 10 | 11.5 |  |  |  | O=C(O)c1cn([C@@H]2C3CC([C@H]2O)n2c4ccccc4c4c5c(c6c7ccccc7n3c6c42)C(=O)NC5=O)nn1 (mixture of isomers) [Compound 18] |
|  | 70.41 |  |  | 72.56% | 53.66 | 27.53% | O=C1NC(=O)c2c1c1c3ccccc3n3c1c1c2c2ccccc2n1C1CC3CC1NCc1ccccc1 (stereo not shown) [Compound 23] |
|  | 28.18 |  |  | NA (NA = <10% inhibition) | 28.09 | 10.67% | COc1ccc(CN2C(=O)c3c(c4c5ccccc5n5c4c4c3c3ccccc3n4C3CC(N4CCCCC4)C5C3)C2=O)cc1 (stereo not shown) [Compound 24] |
|  | 15.94 |  |  | NA (NA = <10% inhibition) | 33.51 | NA (NA = <10% inhibition) | COc1ccc(CN2C(=O)c3c(c4c5ccccc5n5c4c4c3c3ccccc3n4C3CC(NCCO)C5C3)C2=O)cc1 (stereo not shown) [Compound 25] |
| < 10 | 10.18 | 67.6 | < 10 |  |  |  | COc1ccc(CN2C(=O)c3c(c4c5ccccc5n5c4c4c3c3ccccc3n4C3CC5[C@@H](N4CCOCC4)C3)C2=O)cc1 (stereo partly shown) [Compound 26] |
|  | 32.18 |  |  | 18.28% | 63.52 | 30.19% | CNC1(C#N)CC2CC1n1c3ccccc3c3c4c(c5c6ccccc6n2c5c31)C(=O)N(Cc1ccc(OC)cc1)C4=O (stereo not shown) [Compound 27] |
| 25.6 | 28.19 | 48.7 | < 10 |  |  |  | COc1ccc(CN2C(=O)c3c(c4c5ccccc5n5c4c4c3c3ccccc3n4C3CC5[C@](N)(C#N)C3)C2=O)cc1 (stereo partly shown) [Compound 28] |
|  | 46.63 |  |  | 54.14% | 56.44 | 18.38% | O=C1NC(=O)c2c1c1c3ccccc3n3c1c1c2c2ccccc2n1C1CC3CC1N1CCCCC1 (stereo not shown) [Compound 29] |
|  | 29.04 |  |  | NA (NA = <10% inhibition) | 44.61 | NA (NA = <10% inhibition) | CCCCNC1CC2CC1n1c3ccccc3c3c4c(c5c6ccccc6n2c5c31)C(=O)N(Cc1ccc(OC)cc1)C4=O (stereo not shown) [Compound 30] |
|  | 21.91 |  |  | NA (NA = <10% inhibition) | 42.42 | NA (NA = <10% inhibition) | COc1ccc(CN2C(=O)c3c(c4c5ccccc5n5c4c4c3c3ccccc3n4C3CC(N(C)C)C5C3)C2=O)cc1 (stereo not shown) [Compound 31] |

| Structure (SMILES) | inhibition at 10 µM (GSK3β) [%] | % Inhibition PKC (PKC (rat brain)) [%] | inhibition at 10 µM (His tagged ERK2) [%] | inhibition at 10 µM [1] [%] | % Inhibition GSK3β (GSK3β) | % Inhibition ERK2 (His tagged ERK2) [%] | % Inhibition PKA [1] |
| --- | --- | --- | --- | --- | --- | --- | --- |
| CCOC(=O)[C@]1(N)CC2CC1n1c3ccccc3c3c4c(c5c6ccccc6n2c5c31)C(=O)NC4=O (stereo partly shown) [Compound 6] | 94.2 | 83.97 | 61.3 | 59.4 |  |  |  |
| N[C@@]1(C(=O)O)CC2CC1n1c3ccccc3c3c4c(c5c6ccccc6n2c5c31)C(=O)NC4=O (stereo partly shown) [Compound 7] | 99 | 85.71 | 94.7 | 62.5 |  |  |  |
| COC(=O)[C@]1(N)CC2CC1n1c3ccccc3c3c4c(c5c6ccccc6n2c5c31)C(=O)NC4=O (stereo partly shown) [Compound 8] | 96.9 | 59.42 | 50.2 | 70.8 |  |  |  |
